Measured values published in patent publication US9066518B2, “Heterocyclic compounds as pesticides” (Bayer CropScience AG, priority 2009, dated 2015).
Like-named read-outs stand apart in the source and are kept apart here.

Columns and labels:
[1] = tested on: green peach aphid (Myzus persicae); assay: Myzus test (spray treatment); assay type: in vivo; conditions: foliar, 144 h, read-out: activity (effect in %, aphids killed)
Experimental: (§1) Solvents: 78 parts by weight of acetone
• 1.5 parts by weight of dimethylformamide Emulsifier 0.5 part by weight of alkylaryl polyglycol ether
To produce a suitable preparation of active compound, 1 part by weight of active compound is mixed with the stated amounts of solvents and emulsifier, and the concentrate is diluted with emulsifier-containing water to the desired concentration. Discs of leaves of Chinese cabbage (Brassica pekinensis) which are infested by all stages of the green peach aphid (Myzus persicae) are sprayed with an active compound preparation of the desired concentration.
After 6 days, the effect in % is determined. 100% means that all aphids have been killed; 0% means that none of the aphids has been killed.

[2] = tested on: larvae of the mustard beetle (Phaedon cochleariae); assay: Phaedon test (spray treatment); assay type: in vivo; conditions: application rate 500 g/ha; after 7 days; Chinese cabbage leaf discs
From the text: Solvents: 78 parts by weight of acetone • • 1.5 parts by weight of dimethylformamide Emulsifier: 0.5 part by weight of alkylaryl polyglycol ether […] Discs of leaves of Chinese cabbage (Brassica pekinensis) are sprayed with an active compound preparation of the desired concentration and, after drying, populated with larvae of the mustard beetle (Phaedon cochleariae).

[3] = tested on: caterpillars of the armyworm (Spodoptera frugiperda); assay: Spodoptera frugiperda test (spray treatment); assay type: in vivo; conditions: application rate 500 g/ha; after 7 days; maize leaf discs
Experimental: as §1
(§2) • 1.5 parts by weight of dimethylformamide Emulsifier: 0.5 part by weight of alkylaryl polyglycol ether
To produce a suitable preparation of active compound, 1 part by weight of active compound is mixed with the stated amounts of solvents and emulsifier, and the concentrate is diluted with emulsifier-containing water to the desired concentration. Discs of maize leaves (Zea mays) are sprayed with an active compound preparation of the desired concentration and, after drying, populated with caterpillars of the armyworm (Spodoptera frugiperda).
After 7 days, the effect in % is determined. 100% means that all caterpillars have been killed; 0% means that none of the caterpillars has been killed.

[4] = logP determination (neutral / HCOOH); conditions: for chromatographic logP: HCOOH (formic acid)
[5] = tested on: greenhouse red spider mite (Tetranychus urticae); assay: Tetranychus test; OP-resistant (spray treatment); assay type: in vivo; conditions: application rate 500 g/ha, after 6 days, bean leaf discs
Experimental: as §1, §2
To produce a suitable preparation of active compound, 1 part by weight of active compound is mixed with the stated amounts of solvents and emulsifier, and the concentrate is diluted with emulsifier-containing water to the desired concentration. Discs of bean leaves (Phaseolus vulgaris) which are infested by all stages of the greenhouse red spider mite (Tetranychus urticae) are sprayed with an active compound preparation of the desired concentration.
After 6 days, the effect in % is determined. 100% means that all spider mites have been killed; 0% means that none of the spider mites has been killed.

[6] = application rate 500 g/ha, after 6 days, Chinese cabbage leaf discs

Compound	pest or weed control at 500 g/ha [1, 6]	chromatographic logP ([4]; logP (HCOOH), HCOOH)	other results
c1cnc(-c2cccc(-c3cnn(-c4cccnc4)c3)n2)nc1 [Example 1, 2-[6-(1-Pyridin-3-yl-1H-pyrazol-4-yl)pyridin-2-yl]pyrimidine]	–	–	pest or weed control at 500 g/ha ([1]; in Brassica rapa): 100%; chromatographic logP (physchem): 1.36; logP (physchem): 1.52
Cn1c(C(F)(F)F)nn(-c2cccc(-c3cnn(-c4cccnc4)c3)n2)c1=O [Example 16]	90%	2.1	activity (effect in %, beetle larvae killed) [2]: 100%; activity (effect in %, caterpillars killed) [3]: 100%
FC(F)(F)c1ccc(-c2cnn(-c3cccnc3)c2)nc1 [Example 22]	100%	2.38	activity (effect in %, beetle larvae killed) [2]: 100%
c1cncc(-n2cc(-c3cccc(-c4ncon4)n3)cn2)c1 [Example 5, 2-[1,2,4]Oxadiazol-3-yl-6-(1-pyridin-3-yl-1H-pyrazol-4-yl)pyridine]	–	–	pest or weed control at 500 g/ha ([1]; in Brassica rapa): 100%; logP (physchem): 1.54
c1cnc(-c2cccc(-c3cnn(-c4cncnc4)c3)n2)nc1 [Example 34]	100%	1.17	activity (effect in %, spider mites killed) [5]: 90%
c1cncc(-n2cc(-c3cccc(-c4nccnn4)n3)cn2)c1 [Example 7, 3-[6-(1-Pyridin-3-yl-1H-pyrazol-4-yl)pyridin-2-yl]-[1,2,4]triazine]	–	–	pest or weed control at 500 g/ha ([1]; in Brassica rapa): 100%; logP (physchem): 1.32
O=C(NCC(F)(F)F)c1cnc(-c2cnn(-c3cccnc3)c2)cc1C(F)(F)F [Example 109]	90%	2.11	logP ([4]; logP (neutral), neutral): 2.18
N#CCNC(=O)c1ccc(-c2cnn(-c3cccnc3)c2)nc1 [Example 97]	90%	0.95	logP ([4]; logP (neutral), neutral): 1.2
CN(C)C(=O)c1cccc(-c2cnn(-c3cccnc3)c2)n1 [Example 17]	100%	1.24	–
CC(F)(F)c1ccc(-c2cnn(-c3cccnc3)c2)nc1 [Example 40]	90%	2.04	–
COC(=O)CN(C)c1cccc(-c2cnn(-c3cccnc3)c2)n1 [Example 32]	100%	2.18	activity (effect in %, caterpillars killed) [3]: 100%
COCC1(c2cccc(-c3cnn(-c4cccnc4)c3)n2)OCCCO1 [Example 49]	100%	–	logP ([4]; logP (neutral), neutral): 1.69
c1ccc(-c2ccn(-c3cnn(-c4cccnc4)c3)n2)nc1 [Example 23]	100%	1.19	–
CC1OC(c2cccc(-c3cnn(-c4cccnc4)c3)n2)OC1C (stereo not drawn) [Example 72]	100%	2.13	logP (HCOOH) ([4]; HCOOH): 2.09
CC(=O)NC(NO)c1cccc(-c2cnn(-c3cccnc3)c2)n1 (stereo not drawn) [Example 78]	100%	1.49	–
FC(F)(F)c1ccnc(-n2ccc(-c3cnn(-c4cccnc4)c3)n2)n1 [Example 8, 1′-(Pyridin-3-yl)-1-[4-(trifluoromethyl)pyrimidin-2-yl]-1H,1′H-3,4′-bipyrazole]	90%	2.15	–
O=C(c1cccc(-c2cnn(-c3cccnc3)c2)n1)N1CCOCC1 [Example 18]	100%	1.23	–
O=c1ccccn1-c1cccc(-c2cnn(-c3cccnc3)c2)n1 [Example 89]	100%	1.37	–
c1cc(-c2cnn(-c3cncnc3)c2)nc(C2OCCCO2)c1 [Example 68]	100%	1.51	logP ([4]; logP (neutral), neutral): 1.56
CC1(c2cccc(-c3cnn(-c4cccnc4)c3)n2)OCCO1 [Example 10, 2-(2-Methyl-1,3-dioxolan-2-yl)-6-(1-pyridin-3-yl-1H-pyrazol-4-yl)pyridine]	–	–	pest or weed control at 500 g/ha ([1]; in Brassica rapa): 100%; logP ([4]; logP (neutral), neutral): 1.89

Compound	pest or weed control at 500 g/ha [1, 6]	chromatographic logP ([4]; logP (HCOOH), HCOOH)	other results
COC(OC)c1cccc(-c2cnn(-c3cccnc3)c2)n1 [Example 45]	100%	1.75	–
Clc1cccnc1-n1ccc(-c2cnn(-c3cccnc3)c2)n1 [Example 42]	100%	1.81	–
COc1ccnc(-n2ccc(-c3cnn(-c4cccnc4)c3)n2)n1 [Example 28]	100%	1.71	–
CS(=O)(=O)c1cccc(-c2cnn(-c3cccnc3)c2)n1 [Example 56]	100%	1.31	–
O=Cc1cccc(-c2cnn(-c3cccnc3)c2)n1 [Example 110]	80%	1.56	–
c1ccc(-c2csc(-c3cnn(-c4cccnc4)c3)n2)nc1 [Example 47]	100%	1.55	–
c1cncc(-n2cc(-c3cccc(C4=NCCO4)n3)cn2)c1 [Example 84]	100%	0.9	logP ([4]; logP (neutral), neutral): 1.45
COCC(F)c1cccc(-c2cnn(-c3cccnc3)c2)n1 (stereo not drawn) [Example 92]	90%	–	logP ([4]; logP (neutral), neutral): 1.98
c1cncc(-n2cc(-c3cccc(C4=NOCCO4)n3)cn2)c1 [Example 55]	–	1.4	pest or weed control at 100 g/ha ([1]; application rate 100 g/ha, after 6 days, Chinese cabbage leaf discs): 100%
CCOc1cc(OCC)nc(-c2nccc(-c3cnn(-c4cccnc4)c3)n2)n1 [Example 82]	100%	2.23	–
O=[N+]([O-])c1cnc(-n2ccc(-c3cnn(-c4cccnc4)c3)n2)nc1 [Example 102]	100%	1.64	–
c1cncc(-n2cc(-c3cccc(C4OCCO4)n3)cn2)c1 [Example 36]	100%	1.5	–
Cc1nn(-c2cccnc2)cc1-n1ccc(C(F)(F)F)n1 [Example 26]	100%	2.51	–
c1cncc(-n2cc(-c3cccc(-n4nccn4)n3)cn2)c1 [Example 54]	100%	1.63	–
FC(F)(F)c1ccc(-n2ccc(-c3cnn(-c4cccnc4)c3)n2)nc1 [Example 43]	90%	3.22	–
c1cnc(-c2ccn(-c3cnn(-c4cccnc4)c3)n2)nc1 [Example 2, 1′-(Pyridin-3-yl)-3-(pyrimidin-2-yl)-1′H-1,4′-bipyrazole]	100%	–	logP ([4]; HCOOH, logP (HCOOH)): 1.18
c1cncc(-n2cc(-c3cccc(-c4noc(C5CC5)n4)n3)cn2)c1 [Example 62]	100%	2.16	–
c1cncc(-c2cnn(-c3cccnc3)c2)c1 [Example 39]	100%	0.39	–
CCOC(=O)c1cccc(-c2cnn(-c3cccnc3)c2)n1 [Example 99]	100%	1.83	logP ([4]; logP (neutral), neutral): 1.96
